Reference: patent US20090023810A1, “METHODS OF TRANSLATION AND/OR INFLAMMATION BLOCKADE” (priority 2007, published 2009)

Columns and labels:
PPARγ = biological target: T1, PPARγ (Homo sapiens, UniProt P37231); experiment: PPARγ reporter (PPRE) luciferase assay in 293T cells; type: cell-based; conditions: 1 μM 24 hours before 10 μM rosiglitazone or troglitazone 12 hours, FIG. 3D
T1 construct: 293T cells that were transfected with a plasmid (1 μg) expressing a PPARγ reporter gene; endogenous in cells; host or cells: 293T
T1 sequence (P37231 1-505): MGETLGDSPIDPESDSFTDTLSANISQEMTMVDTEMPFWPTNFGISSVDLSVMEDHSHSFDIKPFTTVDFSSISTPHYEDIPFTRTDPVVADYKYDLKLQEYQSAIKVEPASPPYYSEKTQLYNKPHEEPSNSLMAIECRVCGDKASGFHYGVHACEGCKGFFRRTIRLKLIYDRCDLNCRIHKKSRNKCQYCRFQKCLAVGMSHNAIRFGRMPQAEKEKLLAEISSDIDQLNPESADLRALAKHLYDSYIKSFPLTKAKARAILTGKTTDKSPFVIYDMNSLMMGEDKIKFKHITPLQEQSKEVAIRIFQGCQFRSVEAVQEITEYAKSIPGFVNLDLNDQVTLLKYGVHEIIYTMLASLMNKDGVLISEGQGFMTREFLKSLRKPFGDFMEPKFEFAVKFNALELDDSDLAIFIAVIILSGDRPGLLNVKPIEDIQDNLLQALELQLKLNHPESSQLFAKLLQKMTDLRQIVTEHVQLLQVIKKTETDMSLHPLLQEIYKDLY
Experimental: Luciferase assays were performed as described elsewhere (Kim et al., 2005, which is hereby incorporated by reference for all purposes as if fully set forth herein).
293T cells that were transfected with a plasmid (1 μg) expressing a PPARγ reporter gene. After transfection, cells were pretreated or not pretreated with 1 μM of GW9662 for 24 hours, before being treated with 10 μM of rosiglitazone (Rosi) or troglitazone (Tro) for 12 hours. The obtained relative luciferase activities in the cell extracts normalized to a mock-treated control extract are shown in FIG. 3D.

HeLa cells = experiment: Stress granule (SG) formation in HeLa cells, immunocytochemistry; type: cell-based; conditions: pretreated with 1 μM for 24 hours, then 50 μM prostaglandin 1 hour, FIG. 3C
eIF4A = biological target: T2, eIF4A (Homo sapiens, UniProt P60842); conditions: cited from earlier work
T2 construct: His; gift of Dr. Nadejda Korneeva, Louisiana State University
T2 sequence (P60842 whole entry): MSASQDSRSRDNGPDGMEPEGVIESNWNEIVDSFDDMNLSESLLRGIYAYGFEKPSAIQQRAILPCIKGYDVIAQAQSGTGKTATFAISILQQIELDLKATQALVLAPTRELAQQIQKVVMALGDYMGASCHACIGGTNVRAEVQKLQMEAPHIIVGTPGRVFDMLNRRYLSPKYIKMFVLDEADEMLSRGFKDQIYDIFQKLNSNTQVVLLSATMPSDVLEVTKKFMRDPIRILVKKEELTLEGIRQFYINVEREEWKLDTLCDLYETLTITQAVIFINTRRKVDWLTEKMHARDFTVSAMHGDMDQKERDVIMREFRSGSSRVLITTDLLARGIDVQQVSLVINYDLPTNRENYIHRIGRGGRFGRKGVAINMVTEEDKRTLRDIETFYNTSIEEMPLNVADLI

[1] = system: RAW264.7 macrophage cells; experiment: Cap-dependent vs CrPV IRES luciferase mRNA translation in LPS-treated RAW264.7 cells; type: cell-based; conditions: RAW264.7, 24 hours at indicated concentrations or 10 μg/ml for indicated times, FIG. 4D, 4E
Experimental: In order to confirm that the translational inhibition by 15d-PGJ2 occurs at physiological conditions, we tested the effect of prolonged treatment of lipopolysaccharide (LPS) on RAW264.7 that produces PGD2 and 15d-PGJ2 upon treatment of LPS through a COX-2-dependent pathway (Shibata et al., 2002). In FIGS. 4D-4F, the effects of LPS on translation in RAW264.7 macrophage cells are shown. RAW264.7 cells were incubated with LPS for 24 hours at the indicated concentrations. After the LPS treatment, mRNAs (1 μg) containing Renilla luciferase translated in a cap-dependent manner and mRNAs (1 μg) containing firefly luciferase under the control of cricket paralysis virus (CrPV) IRES were co-transfected into the cells. Luciferase activities were measured 3 hours post-transfection, and the obtained results are shown in FIG. 4D, wherein columns indicate ratios of relative luciferase activities (Renilla luciferase/Firefly luciferase) in the cell extracts normalized to that in a mock-treated control extract.
Further, RAW264.7 cells were incubated with LPS (10 μg/ml) for the times indicated. Transfection of mRNAs and analyses of luciferase activities were performed as described in FIG. 4D, and the obtained results are shown in FIG. 4E. […]

In the case of `O=C(Nc1ccccc1)c1cc([N+](=O)[O-])ccc1Cl` [GW9662], the “PPARγ-mediated PPRE activation” value (PPARγ) is reported as “completely blocked” and the “Effect of pretreatment on SG formation induced by 15d-PGJ2 and PGA1” value (HeLa cells) is reported as “had no effect on SG formation induced by 15d-PGJ2 and PGA1”.

For `CC(/C=C/C(C)=C/[C@@H]1Cc2nc(cs2)[C@@H](C)C[C@@H](N)CC(=O)O[C@@H](C)C/C(C)=C/C=C\C(=O)O1)=C\CN(C)C` [PatA, pateamine A], the SG formation (eIF4A; Dang et al., 2006) is given as “induces formation of SGs independently of eIF2F phosphorylation” and the Translation (eIF4A; Low et al., 2005) is given as “could block translation by inactivating eIF4A”.

For lipopolysaccharide [LPS], the “Cap-dependent translation (Renilla/firefly luciferase ratio)” value [1] was “inhibited”.
